The values below come from US20210379543A1, “PROCESS FOR PRODUCING A NANO-TAN IIA MICROEMULSION SYSTEM” (Wakamono Corporation, priority 2021, published 2021).

Structures are written as SMILES.

The nature of the data set: Water solubility / water-dispersability, including FIG. 1 comparison. Particulars: dispersed in water, bottle A vs bottle B. It is filed as physicochemical.

On to `Cc1coc2c1C(=O)C(=O)c1c-2ccc2c1CCCC2(C)C` [known 90% Tan IIA, Tanshinone IIA], for which the “Water-dispersability (FIG. 1)” value is “insoluble in water”.
